Test in all cases: Cell growth inhibition assay (MTS)
Common to all, as to type: cell-based

In one experiment the test system is HT-1080. The conditions noted are these: Homo sapiens; HT-1080, fibrosarcoma. The method, then: (§1) Compounds of the present invention have been tested for activity against a variety of cancer cell lines. The ability of compounds to inhibit cell growth in this assay is correlated with the reduction of dehydrogenase enzyme activity found in metabolically active cells.
(§2) Materials: A large variety of cancer cells from ATCC were maintained at 37° C., 5% CO2 in DMEM media supplemented with 10% fetal bovine serum, penicillin/streptomycin and fungizone (Invitrogen). NCM460 (Incell), a normal colon epithelial cell line, and human mammary epithelial cells (Cambrex) were maintained at 37° C., 5% CO2 in DMEM and HEBM media (Cambrex), respectively.
(§3) Methods: Test compounds were dissolved and diluted to 300× in DMSO then diluted 1:40 in DMEM. Cells were seeded into 96-well tissue culture plates at 1-5×10^3 per well and cultured at 37° C. for 24 h. Cells were incubated with test compounds for 72 hours followed by incubation with tetrazolium compound (3-(4,5-dimethylthiazol-2-yl)-5-(3-carboxymethoxyphenyl)-2-(4-sulfophenyl)-2H-tetrazolium, inner salt; MTS) and the electron coupling reagent, phenazine methosulfate (PMS) for 4 hr. […] The measurement of the absorbance of the formazan was assessed using an ENVISION™ (Perkin Elmer) microplate reader at 492 nm. The calculated IC50 value is the concentration of the test compound that causes a 50% decrease in the absorbance.

A further experiment concerns MDAMB-231. The conditions noted are these: Homo sapiens, MDA-MB-231; MDAMB-231, breast adenocarcinoma. The method, then:
as §1, §2, §3

A further experiment relates to SK-MEL-28. To be noted: Homo sapiens. The method, then: as §1, §2, §3
The next experiment concerns PANC-1. The conditions noted are these: Homo sapiens; PANC-1, pancreas epithelioid carcinoma. How it is done: as §1, §2, §3
For a further experiment, the system named is SNU475. To be noted: Homo sapiens, SNU-475; SNU475, liver. The method, then:
as §1, §2, §3

The subject of another experiment is SKMES-1. To be noted: Homo sapiens, SK-MES-1; SKMES-1, squamous cell carcinoma. The method, then:
as §1, §2, §3

In the next experiment the test system is LOVO. The conditions noted are these: Homo sapiens, colorectal carcinoma. How it is done:
as §1, §2, §3

A further experiment has as its system Kato111. The conditions noted are these: Homo sapiens; Kato111, gastric carcinoma. The method, then:
as §1, §2, §3

A further experiment has as its system NCI-H1993. The conditions noted are these: Homo sapiens; NCI-H1993, lung adenocarcinoma. The method, then: as §1, §2, §3
In the next experiment the test system is KG-1a. To be noted: Homo sapiens, AML. The method, then:
as §1, §2, §3

In a further experiment the test system is HCT-116. To be noted: Homo sapiens; HCT-116, colon. How it is done:
as §1, §2, §3

For a further experiment, the system named is SW480. The conditions noted are these: Homo sapiens; SW480, colon. The method, then:
as §1, §2, §3

A further experiment concerns SK-LMS-1. To be noted: Homo sapiens; SK-LMS-1, leiomyosarcoma. The method, then:
as §1, §2, §3

A further experiment deals with NCI-H358. To be noted: Homo sapiens; NCI-H358, non-small cell lung cancer, brancioalveolar carcinoma. How it is done:
as §1, §2, §3

A further experiment concerns SK-OV-3. To be noted: Homo sapiens; SK-OV-3, ovary. How it is done: as §1, §2, §3
In the next experiment the test system is ASPC-1. To be noted: Homo sapiens, ASPC1; ASPC-1, pancreas. How it is done:
as §1, §2, §3

For the next experiment, the system named is HEC1A. To be noted: Homo sapiens, HEC-1-A, endometrial. How it is done:
as §1, §2, §3

For the next experiment, the system named is NCI-H460. The conditions noted are these: Homo sapiens; NCI-H460, large cell lung carcinoma. The method, then: as §1, §2, §3
The next experiment deals with DLD-1. The conditions noted are these: Homo sapiens. How it is done:
as §1, §2, §3

Another experiment relates to NCI-H526. The conditions noted are these: Homo sapiens; NCI-H526, lung carcinoma, variant small cell lung cancer. How it is done:
as §1, §2, §3

The test system of the next experiment is LS411N. To be noted: Homo sapiens, LS-411N, colorectal carcinoma. How it is done:
as §1, §2, §3

A further experiment relates to DU145. To be noted: Homo sapiens, DU-145; DU145, prostate. How it is done: as §1, §2, §3
In the next experiment the test system is RKO. To be noted: Homo sapiens. The method, then:
as §1, §2, §3

For the next experiment, the system named is WM-266-4. To be noted: Homo sapiens. The method, then: as §1, §2, §3
Another experiment concerns A375. The conditions noted are these: Homo sapiens. How it is done: as §1, §2, §3
The test system of another experiment is SNU-16. To be noted: Homo sapiens; SNU-16, gastric Carcinoma. How it is done:
as §1, §2, §3

For a further experiment, the system named is CAKI-2. The conditions noted are these: Homo sapiens; CAKI-2, kidney. The method, then:
as §1, §2, §3

The next experiment concerns CC5292. The conditions noted are these: Homo sapiens; CC5292, MiT. How it is done:
as §1, §2, §3

The next experiment concerns CFPPAC-1. The conditions noted are these: Homo sapiens; CFPPAC-1, pancreasductal adenocarcinoma; cystic fibrosis. The method, then:
as §1, §2, §3

The subject of the next experiment is RT4. The conditions noted are these: RT-4; RT4, human urinary bladder cell carcinoma. The method, then: as §1, §2, §3
Another experiment relates to BDCM. To be noted: Homo sapiens, lymphoblast. How it is done:
as §1, §2, §3

The test system of another experiment is NCI-H441. To be noted: Homo sapiens; NCI-H441, lung papillary adenocarcinoma. The method, then:
as §1, §2, §3

In a further experiment the test system is KG-1. The conditions noted are these: Homo sapiens; KG-1, AML. The method, then: as §1, §2, §3
The test system of the next experiment is SK-MEL-2. The conditions noted are these: Homo sapiens; SK-MEL-2, 72 hours. How it is done: as §1, §2, §3

Broadly, the GI50 is the concentration that inhibits growth by half. A lower GI50 goes with greater sensitivity of the cells. As for `Cn1ccc(S(=O)(=O)N2CCC[C@@H](Nc3nccc(-c4c(-c5cccc(OCOP(=O)(O)O)c5)nc5occn45)n3)C2)n1` [Compound 19, (R)-(3-(5-(2-(1-(1-methyl-1H-pyrazol-3-ylsulfonyl)piperidin-3-ylamino)pyrimidin-4-yl)imidazo[2,1-b]oxazol-6-yl)phenoxy)methyl dihydrogen phosphate], the GI50 with HT-1080 turned out to be 26.8 µM; with MDAMB-231, 28.2 µM; in the experiment on SK-MEL-28 (SK-MEL-28, malignant melanoma), 1.7 µM; in the experiment on PANC-1, 29.7 µM; in the experiment with SNU475, 29.1 µM; in the experiment on SKMES-1 it was 9.02 µM. In addition, the GI50 is 2.17 µM in the experiment with LOVO; 6.11 µM in the experiment with Kato111; 26.2 µM with NCI-H1993; 11.5 µM with KG-1a; 6.61 µM with HCT-116; 8.27 µM in the experiment with SW480. The GI50 in the experiment on SK-LMS-1 amounted to 15.2 µM; in the experiment with NCI-H358, 7.5 µM; in the experiment with SK-OV-3 it was 13.7 µM; with ASPC-1 it was 6.33 µM; in the experiment with HEC1A, 2.72 µM; with NCI-H460, 19.3 µM. Besides, the GI50 amounted to 19 µM with DLD-1 (DLD-1, colon); 58.9 µM in the experiment with NCI-H526; 0.31 µM in the experiment with LS411N; 9.62 µM in the experiment with DU145; 0.57 µM with RKO (colon carcinoma); 0.13 µM in the experiment with WM-266-4 (WM 266-4, WM-266.4, melanoma). The GI50 with A375 (A-375, A375, skin) was found to be 0.3 µM; in the experiment on A375 (A-375, A-375, melanoma), 0.28 µM; in the experiment on SNU-16, 15.7 µM; in the experiment on CAKI-2, 26.2 µM; in the experiment with CC5292, 8.2 µM; in the experiment on CFPPAC-1 it was 11.9 µM. Also, the 50% growth inhibitory concentration (GI50) with RT4 came out at 10 µM; with BDCM, 32.7 µM; in the experiment with NCI-H441 it was 17.8 µM; with KG-1, 30.8 µM.
In the case of `Cn1ccc(S(=O)(=O)N2CCC[C@@H](Nc3nccc(-c4c(-c5cccc(O)c5)nc5occn45)n3)C2)n1` [Compound 17, (R)-3-(5-(2-(1-(1-methyl-1H-pyrazol-3-ylsulfonyl)piperidin-3-ylamino)pyrimidin-4-yl)imidazo[2,1-b]oxazol-6-yl)phenol], the GI50 with SK-MEL-28 (SK-MEL-28, 72 hours) was 0.097 µM; in the experiment on SK-MEL-2 it was 0.154 µM; in the experiment on DLD-1 (DLD-1, 72 hours), 12.1 µM; in the experiment with RKO (72 hours), 0.095 µM; with WM-266-4 (WM-266-4, 72 hours) it was 0.0006 µM; in the experiment with A375 (A-375, 72 h, A375, 72 hours), under 0.0004 µM.

The values above are taken from patent publication US20100183600A1, “RAF Inhibitors and Their Uses” (ARQULE, INC., priority 2008, published 2010).
